Drawing on article PMC8779152, “A “Double-Locked” and Enzyme/pH-Activated Theranostic Agent for Accurate Tumor Imaging and Therapy” (Molecules, 2022), this text covers IC50 for two compounds.

The target in the assay is HDAC1 (Homo sapiens, UniProt Q13547). Nature of the assay: HDAC1 enzyme inhibition (assay details not given). Format: biochemical.
Chain of HDAC1 (Q13547 whole entry): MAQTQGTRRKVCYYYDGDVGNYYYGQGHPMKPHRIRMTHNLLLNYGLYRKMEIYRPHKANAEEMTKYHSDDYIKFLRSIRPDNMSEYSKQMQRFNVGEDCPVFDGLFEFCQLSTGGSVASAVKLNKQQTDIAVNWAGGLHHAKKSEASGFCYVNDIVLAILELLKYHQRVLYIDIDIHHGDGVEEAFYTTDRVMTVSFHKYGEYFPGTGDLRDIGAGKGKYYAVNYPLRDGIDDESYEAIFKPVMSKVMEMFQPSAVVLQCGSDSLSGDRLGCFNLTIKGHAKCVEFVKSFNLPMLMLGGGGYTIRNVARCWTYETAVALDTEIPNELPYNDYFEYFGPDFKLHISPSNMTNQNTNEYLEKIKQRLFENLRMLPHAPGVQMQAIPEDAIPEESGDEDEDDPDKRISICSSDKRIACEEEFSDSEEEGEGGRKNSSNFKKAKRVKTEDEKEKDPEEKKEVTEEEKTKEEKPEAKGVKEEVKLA

For `Nc1ccc(-c2nc(NCc3ccc(C(=O)NO)cc3)cc3c2[nH]c2ccccc23)cc1` [H6AQ], the IC50 stood at 41 ± 5 nM.

Compound `O=C(NO)c1ccc(CNc2cc3c([nH]c4ccccc43)c(-c3ccc([N+](=O)[O-])cc3)n2)cc1` [H6M] registered an IC50 of 65 ± 6 nM.
